According to PubChem BioAssay AID248 (DTP/NCI, 2004):
Several values for one entry are separate records, joined by “and”; a condition that tells them apart may be missing. Equal values may be shown once. Toxic doses and inconclusive results are not listed.

Test system: L1210 leukemia ip in BDF1 mice, survival T/C
Assay: NCI In Vivo Anticancer Drug Screen. Data for tumor model L1210 Leukemia (intraperitoneal) in B6D2F1 (BDF1) mice
Details: endpoint: mean survival time, higher = longer survival
Method in brief: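 Ratio derived from survival: compound-dosed mice over vehicle-dosed mice, all bearing a transplantable tumor.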

[1] = dose: 50.0 mg/kg/injection, schedule: Q01DX009 (ip), vehicle: saline
[2] = dose: 100.0 mg/kg/injection, schedule: Q01DX009 (ip), vehicle: saline
[3] = dose: 25.0 mg/kg/injection, schedule: Q01DX009 (ip), vehicle: saline with Tween-80
[4] = dose: 50.0 mg/kg/injection, schedule: Q01DX009 (ip), vehicle: saline with Tween-80
[5] = dose: 100.0 mg/kg/injection, schedule: Q04DX003 (ip), vehicle: saline with Tween-80
[6] = dose: 10.0 mg/kg/injection, schedule: Q01DX001 (ip), vehicle: saline
[7] = dose: 20.0 mg/kg/injection, schedule: Q01DX001 (ip), vehicle: saline
[8] = dose: 40.0 mg/kg/injection, schedule: Q01DX001 (ip), vehicle: saline
[9] = dose: 200.0 mg/kg/injection, schedule: Q04DX003 (ip), vehicle: saline with Tween-80
[10] = dose: 100.0 mg/kg/injection, schedule: Q01DX009 (ip), vehicle: Klucel (hydroxypropylcellulose) (HPC)
[11] = dose: 200.0 mg/kg/injection, schedule: Q01DX009 (ip), vehicle: Klucel (hydroxypropylcellulose) (HPC)
[12] = dose: 400.0 mg/kg/injection, schedule: Q01DX009 (ip), vehicle: Klucel (hydroxypropylcellulose) (HPC)

C=CC[Se]c1ncnc2c1ncn2C1OC(CO)C(O)C1O (centres undefined)
T/C (dose: 12.5 mg/kg/injection, schedule: Q01DX005 (ip), vehicle: saline): 100 % of control
T/C (dose: 25.0 mg/kg/injection, schedule: Q01DX005 (ip), vehicle: saline): 110 % of control
T/C (dose: 50.0 mg/kg/injection, schedule: Q01DX005 (ip), vehicle: saline): 104 % of control
T/C [1]: 90 % of control
T/C [2]: 88 % of control

CN(C)N=Nc1ccc(CCCC(=O)NN)cc1
T/C (dose: 18.0 mg/kg/injection, schedule: Q01DX009 (ip), vehicle: other): 103 % of control
T/C (dose: 22.0 mg/kg/injection, schedule: Q01DX Z (ip), vehicle: carboxymethylcellulose (CMC)): 114 % of control
T/C (dose: 28.0 mg/kg/injection, schedule: Q01DX009 (ip), vehicle: other): 111 % of control
T/C (dose: 100.0 mg/kg/injection, schedule: Q01DX001 (ip), vehicle: carboxymethylcellulose (CMC)): 111 % of control
T/C (dose: 200.0 mg/kg/injection, schedule: Q01DX001 (ip), vehicle: carboxymethylcellulose (CMC)): 113 % of control

OC1CC[N-]CC1.OC1CC[N-]CC1.[Cl][Pt+2]([Cl])([Cl])[Cl]
T/C (dose: 12.5 mg/kg/injection, schedule: Q01DX009 (ip), vehicle: saline with Tween-80): 100 % of control
T/C [3]: 103 % of control
T/C (dose: 25.0 mg/kg/injection, schedule: Q04DX003 (ip), vehicle: saline with Tween-80): 100 % of control
T/C [4]: 92 % of control
T/C (dose: 50.0 mg/kg/injection, schedule: Q04DX003 (ip), vehicle: saline with Tween-80): 107 % of control
T/C [5]: 112 % of control and 119 % of control

CC(=O)N(C)N=O
T/C [6]: 115 % of control
T/C [7]: 115 % of control
T/C (dose: 30.0 mg/kg/injection, schedule: Q01DX001 (ip), vehicle: saline): 115 % of control
T/C [8]: 114 % of control

COc1ccc(C)cc1NC(=S)NC(=O)c1ccc(Cl)cc1Cl
T/C [3]: 93 % of control and 105 % of control
T/C [4]: 93 % of control and 94 % of control
T/C (dose: 100.0 mg/kg/injection, schedule: Q04DX002 (ip), vehicle: saline with Tween-80): 96 % of control
T/C [5]: 98 % of control
T/C (dose: 200.0 mg/kg/injection, schedule: Q04DX002 (ip), vehicle: saline with Tween-80): 93 % of control and 107 % of control
T/C [9]: 95 % of control
T/C (dose: 400.0 mg/kg/injection, schedule: Q01DX009 (ip), vehicle: saline with Tween-80): 96 % of control
T/C (dose: 400.0 mg/kg/injection, schedule: Q04DX002 (ip), vehicle: saline with Tween-80): 93 % of control and 98 % of control

N#CC(C#N)=C/C=C/c1cccc([N+](=O)[O-])c1
T/C (dose: 38.0 mg/kg/injection, schedule: Q01DX009 (ip), vehicle: saline): 102 % of control

Cc1ccccc1NC(=O)Nc1ccc(S(N)(=O)=O)cc1
T/C [10]: 104 % of control
T/C (dose: 100.0 mg/kg/injection, schedule: Q04DX002 (ip), vehicle: Klucel (hydroxypropylcellulose) (HPC)): 86 % of control
T/C [11]: 101 % of control
T/C (dose: 200.0 mg/kg/injection, schedule: Q04DX002 (ip), vehicle: Klucel (hydroxypropylcellulose) (HPC)): 93 % of control
T/C [12]: 112 % of control
T/C (dose: 400.0 mg/kg/injection, schedule: Q04DX002 (ip), vehicle: Klucel (hydroxypropylcellulose) (HPC)): 86 % of control

CCCCCCCCCCCCCCOc1ccc(Cl)cc1Cl
T/C [10]: 107 % of control
T/C [11]: 100 % of control
T/C [12]: 105 % of control

CCCCNC(C)(C)C(SS)c1ccco1 (centres undefined)
T/C (dose: 12.5 mg/kg/injection, schedule: Q04DX003 (ip), vehicle: alcohol): 104 % of control
T/C (dose: 25.0 mg/kg/injection, schedule: Q01DX009 (ip), vehicle: saline): 97 % of control
T/C (dose: 25.0 mg/kg/injection, schedule: Q04DX003 (ip), vehicle: alcohol): 101 % of control
T/C [1]: 92 % of control
T/C (dose: 50.0 mg/kg/injection, schedule: Q04DX003 (ip), vehicle: alcohol): 96 % of control
T/C [2]: 98 % of control
T/C (dose: 100.0 mg/kg/injection, schedule: Q04DX003 (ip), vehicle: alcohol): 101 % of control
T/C (dose: 150.0 mg/kg/injection, schedule: Q01DX009 (ip), vehicle: saline with Tween-80): 92 % of control
T/C (dose: 200.0 mg/kg/injection, schedule: Q04DX003 (ip), vehicle: alcohol): 104 % of control

C=C(C(=O)O)C(=O)O
T/C [1]: 102 % of control
T/C [2]: 116 % of control
T/C [5]: 97 % of control
T/C (dose: 200.0 mg/kg/injection, schedule: Q01DX009 (ip), vehicle: saline): 100 % of control
T/C [9]: 106 % of control

Cc1ccc2c(c1)N(CCCN1CC[N+](C)(C)CC1)c1ccccc1S2
T/C [6]: 101 % of control
T/C [7]: 95 % of control
T/C [8]: 98 % of control
T/C (dose: 80.0 mg/kg/injection, schedule: Q01DX001 (ip), vehicle: saline): 98 % of control

CCSC1C(O)OC(CO)C(O)C1O (centres undefined)
T/C (dose: 100.0 mg/kg/injection, schedule: Q01DX001 (ip), vehicle: saline): 95 % of control
T/C (dose: 200.0 mg/kg/injection, schedule: Q01DX001 (ip), vehicle: saline): 106 % of control
T/C (dose: 400.0 mg/kg/injection, schedule: Q01DX001 (ip), vehicle: saline): 104 % of control

C[N+](C)(C)c1ncnc2nc[nH]c12
T/C (dose: 22.5 mg/kg/injection, schedule: Q01DX Z (ip), vehicle: saline): 112 % of control
T/C (dose: 31.0 mg/kg/injection, schedule: Q01DX005 (ip), vehicle: saline): 112 % of control
T/C (dose: 31.0 mg/kg/injection, schedule: Q01DX009 (ip), vehicle: saline): 120 % of control
T/C (dose: 45.0 mg/kg/injection, schedule: Q01DX Z (ip), vehicle: saline): 110 % of control
T/C (dose: 53.0 mg/kg/injection, schedule: Q01DX Z (ip), vehicle: carboxymethylcellulose (CMC)): 110 % of control
T/C (dose: 62.0 mg/kg/injection, schedule: Q01DX005 (ip), vehicle: saline): 110 % of control
T/C (dose: 62.0 mg/kg/injection, schedule: Q01DX009 (oral), vehicle: saline): 109 % of control
T/C (dose: 62.0 mg/kg/injection, schedule: Q01DX009 (sc), vehicle: saline): 109 % of control
T/C (dose: 80.0 mg/kg/injection, schedule: Q01DX Z (ip), vehicle: carboxymethylcellulose (CMC)): 118 % of control
T/C (dose: 100.0 mg/kg/injection, schedule: Q## X008 (ip), vehicle: saline): 110 % of control
T/C (dose: 100.0 mg/kg/injection, schedule: Q## X024 (ip), vehicle: saline): 115 % of control
T/C (dose: 120.0 mg/kg/injection, schedule: Q01DX Z (ip), vehicle: carboxymethylcellulose (CMC)): 118 % of control
T/C (dose: 125.0 mg/kg/injection, schedule: Q01DX001 (ip), vehicle: saline): 96 % of control
T/C (dose: 125.0 mg/kg/injection, schedule: Q01DX001 (oral), vehicle: saline): 116 % of control
T/C (dose: 125.0 mg/kg/injection, schedule: Q01DX001 (sc), vehicle: saline): 106 % of control
T/C (dose: 125.0 mg/kg/injection, schedule: Q01DX005 (ip), vehicle: saline): 124 % of control
T/C (dose: 125.0 mg/kg/injection, schedule: Q01DX009 (sc), vehicle: saline): 118 % of control
T/C (dose: 125.0 mg/kg/injection, schedule: Q## X003 (ip), vehicle: saline): 108 % of control
T/C (dose: 180.0 mg/kg/injection, schedule: Q01DX Z (ip), vehicle: carboxymethylcellulose (CMC)): 162 % of control
T/C (dose: 200.0 mg/kg/injection, schedule: Q## X008 (ip), vehicle: saline): 109 % of control
T/C (dose: 250.0 mg/kg/injection, schedule: Q01DX001 (ip), vehicle: saline): 107 % of control
T/C (dose: 250.0 mg/kg/injection, schedule: Q01DX001 (oral), vehicle: saline): 110 % of control
T/C (dose: 250.0 mg/kg/injection, schedule: Q01DX001 (sc), vehicle: saline): 109 % of control
T/C (dose: 250.0 mg/kg/injection, schedule: Q01DX009 (sc), vehicle: saline): 123 % of control
T/C (dose: 250.0 mg/kg/injection, schedule: Q## X003 (ip), vehicle: saline): 119 % of control
T/C (dose: 270.0 mg/kg/injection, schedule: Q01DX015 (ip), vehicle: saline): 152 % of control
T/C (dose: 400.0 mg/kg/injection, schedule: Q## X008 (ip), vehicle: saline): 120 % of control
T/C (dose: 500.0 mg/kg/injection, schedule: Q01DX001 (oral), vehicle: saline): 112 % of control
T/C (dose: 800.0 mg/kg/injection, schedule: Q## X024 (ip), vehicle: saline): 122 % of control
T/C (dose: 1000.0 mg/kg/injection, schedule: Q01DX001 (oral), vehicle: saline): 124 % of control

O=c1ccc2cc3cc(I)c(O)c(I)c3oc-2c1I
T/C [10]: 101 % of control
T/C [11]: 99 % of control

CSc1ccc(C)cc1C
T/C [10]: 105 % of control
T/C [11]: 103 % of control
T/C [12]: 105 % of control
